Laboratory results: ChEMBL document CHEMBL1671766, “In vitro activities of several antimicrobial agents against recently isolated and genotyped Chlamydia trachomatis urogenital serovars D through K” (2010)

How the values were obtained:
Format in all cases: functional, LLC-MK2
Chlamydia trachomatis [1] = experiment: Bactericidal activity against Chlamydia trachomatis serovar H infected in […] monolayers assessed as reduction in number of microbial inclusions after 48 hrs
Chlamydia trachomatis [2] = experiment: Antimicrobial activity against Chlamydia trachomatis 580 serovar H infected in […] monolayers assessed as reduction in number of microbial inclusions after 48 hrs
Chlamydia trachomatis [3] = experiment: Bactericidal activity against Chlamydia trachomatis serovar K infected in […] monolayers assessed as reduction in number of microbial inclusions after 48 hrs
Chlamydia trachomatis [4] = experiment: Antimicrobial activity against Chlamydia trachomatis serovar F infected in […] monolayers assessed as reduction in number of microbial inclusions after 48 hrs
Chlamydia trachomatis [5] = experiment: Antimicrobial activity against Chlamydia trachomatis serovar K infected in […] monolayers assessed as reduction in number of microbial inclusions after 48 hrs
Chlamydia trachomatis [6] = experiment: Antimicrobial activity against Chlamydia trachomatis serovar H infected in […] monolayers assessed as reduction in number of microbial inclusions after 48 hrs
Chlamydia trachomatis [7] = experiment: Antimicrobial activity against Chlamydia trachomatis serovar G infected in […] monolayers assessed as reduction in number of microbial inclusions after 48 hrs
Chlamydia trachomatis [8] = experiment: Bactericidal activity against Chlamydia trachomatis serovar E infected in […] monolayers assessed as reduction in number of microbial inclusions after 48 hrs
Chlamydia trachomatis [9] = experiment: Antimicrobial activity against Chlamydia trachomatis Bour serovar E infected in […] monolayers assessed as reduction in number of microbial inclusions after 48 hrs
Chlamydia trachomatis [10] = experiment: Antimicrobial activity against Chlamydia trachomatis Ic Cal-8 serovar D infected in […] monolayers assessed as reduction in number of microbial inclusions after 48 hrs
Chlamydia trachomatis [11] = experiment: Bactericidal activity against Chlamydia trachomatis serovar F infected in […] monolayers assessed as reduction in number of microbial inclusions after 48 hrs
Chlamydia trachomatis [12] = experiment: Bactericidal activity against Chlamydia trachomatis serovar G infected in […] monolayers assessed as reduction in number of microbial inclusions after 48 hrs
Chlamydia trachomatis [13] = experiment: Antimicrobial activity against Chlamydia trachomatis serovar I infected in […] monolayers assessed as reduction in number of microbial inclusions after 48 hrs
Chlamydia trachomatis [14] = experiment: Antimicrobial activity against Chlamydia trachomatis serovar E infected in […] monolayers assessed as reduction in number of microbial inclusions after 48 hrs
Chlamydia trachomatis [15] = experiment: Antimicrobial activity against Chlamydia trachomatis UW-36 serovar J infected in […] monolayers assessed as reduction in number of microbial inclusions after 48 hrs; conditions: J/UW-36, 48 h
Chlamydia trachomatis [16] = experiment: Antimicrobial activity against Chlamydia trachomatis serovar D infected in […] monolayers assessed as reduction in number of microbial inclusions after 48 hrs
Chlamydia trachomatis [17] = experiment: Antimicrobial activity against Chlamydia trachomatis serovar J infected in […] monolayers assessed as reduction in number of microbial inclusions after 48 hrs
Chlamydia trachomatis [18] = experiment: Bactericidal activity against Chlamydia trachomatis serovar D infected in […] monolayers assessed as reduction in number of microbial inclusions after 48 hrs
Chlamydia trachomatis [19] = experiment: Bactericidal activity against Chlamydia trachomatis serovar J infected in […] monolayers assessed as reduction in number of microbial inclusions after 48 hrs
Chlamydia trachomatis [20] = experiment: Bactericidal activity against Chlamydia trachomatis serovar I infected in […] monolayers assessed as reduction in number of microbial inclusions after 48 hrs

Row | SMILES | MBC (Chlamydia trachomatis [1]) | MIC (Chlamydia trachomatis [2]) | MBC (Chlamydia trachomatis [3]) | MIC (Chlamydia trachomatis [4]) | MIC (Chlamydia trachomatis [5]) | MIC (Chlamydia trachomatis [6]) | MIC (Chlamydia trachomatis [7]) | MBC (Chlamydia trachomatis [8]) | MIC (Chlamydia trachomatis [9]) | MBC (Chlamydia trachomatis [10]) | MIC (Chlamydia trachomatis [10]) | MBC (Chlamydia trachomatis [11]) | MBC (Chlamydia trachomatis [12]) | MIC (Chlamydia trachomatis [13]) | MIC (Chlamydia trachomatis [14]) | MIC (Chlamydia trachomatis [15]) | MIC (Chlamydia trachomatis [16]) | MIC (Chlamydia trachomatis [17]) | MBC (Chlamydia trachomatis [18]) | MBC (Chlamydia trachomatis [19]) | further results
1 | CC[C@H]1OC(=O)[C@H](C)[C@@H](O[C@H]2C[C@@](C)(OC)[C@@H](O)[C@H](C)O2)[C@H](C)[C@@H](O[C@@H]2O[C@H](C)C[C@H](N(C)C)[C@H]2O)[C@](C)(O)C[C@@H](C)CN(C)[C@H](C)[C@@H](O)[C@]1(C)O [AZITHROMYCIN] | 1 µg/mL | 0.25 µg/mL | 0.5 µg/mL | 0.5 µg/mL | 0.5 µg/mL | 0.25 µg/mL | 0.5 µg/mL | 1 µg/mL | 0.25 µg/mL | 1 µg/mL | 0.25 µg/mL | 0.5 µg/mL | 1 µg/mL | 0.5 µg/mL | 0.25 µg/mL | 0.5 µg/mL | 0.25 µg/mL | 0.25 µg/mL | 0.5 µg/mL | 0.5 µg/mL | MBC (Chlamydia trachomatis [20]): 1 µg/mL
2 | CC[C@H]1OC(=O)[C@H](C)[C@@H](O[C@H]2C[C@@](C)(OC)[C@@H](O)[C@H](C)O2)[C@H](C)[C@@H](O[C@@H]2O[C@H](C)C[C@H](N(C)C)[C@H]2O)[C@](C)(OC)C[C@@H](C)C(=O)[C@H](C)[C@@H](O)[C@]1(C)O [CLARITHROMYCIN] | 0.06 µg/mL | 0.06 µg/mL | 0.03 µg/mL | 0.015 µg/mL | 0.015 µg/mL | 0.03 µg/mL | 0.03 µg/mL | 0.03 µg/mL | 0.03 µg/mL | 0.06 µg/mL | 0.03 µg/mL | 0.03 µg/mL | 0.06 µg/mL | 0.015 µg/mL | 0.015 µg/mL | 0.06 µg/mL | 0.03 µg/mL | 0.03 µg/mL | 0.03 µg/mL | 0.06 µg/mL | MBC (Chlamydia trachomatis [20]): 0.03 µg/mL
3 | C[C@H]1c2cccc(O)c2C(=O)C2=C(O)[C@]3(O)C(=O)C(C(N)=O)=C(O)[C@@H](N(C)C)[C@@H]3[C@@H](O)[C@@H]21.O [DOXYCYCLINE] | 0.06 µg/mL | 0.06 µg/mL | 0.06 µg/mL | 0.03 µg/mL | 0.03 µg/mL | 0.03 µg/mL | 0.03 µg/mL | 0.06 µg/mL | 0.03 µg/mL | 0.06 µg/mL | 0.03 µg/mL | 0.06 µg/mL | 0.06 µg/mL | 0.06 µg/mL | 0.03 µg/mL | 0.5 µg/mL | 0.03 µg/mL | 0.06 µg/mL | 0.06 µg/mL | 0.06 µg/mL | MBC (Chlamydia trachomatis [20]): 0.06 µg/mL
4 | CC[C@H]1OC(=O)[C@H](C)[C@@H](O[C@H]2C[C@@](C)(OC)[C@@H](O)[C@H](C)O2)[C@H](C)[C@@H](O[C@@H]2O[C@H](C)C[C@H](N(C)C)[C@H]2O)[C@](C)(O)C[C@@H](C)C(=O)[C@H](C)[C@@H](O)[C@]1(C)O [ERYTHROMYCIN] | 1 µg/mL | 1 µg/mL | 1 µg/mL | 0.5 µg/mL | 0.5 µg/mL | 0.5 µg/mL | 0.5 µg/mL | 1 µg/mL | 0.5 µg/mL | 1 µg/mL | 0.5 µg/mL | 1 µg/mL | 1 µg/mL | 0.5 µg/mL | 0.5 µg/mL | 0.5 µg/mL | 0.5 µg/mL | 1 µg/mL | 1 µg/mL | 2 µg/mL | MBC (Chlamydia trachomatis [20]): 1 µg/mL
5 | C[C@H]1COc2c(N3CCN(C)CC3)c(F)cc3c(=O)c(C(=O)O)cn1c23.C[C@H]1COc2c(N3CCN(C)CC3)c(F)cc3c(=O)c(C(=O)O)cn1c23.O [LEVOFLOXACIN] | 0.5 µg/mL | 0.5 µg/mL | 0.5 µg/mL | 0.5 µg/mL | 0.5 µg/mL | 0.5 µg/mL | 0.25 µg/mL | 0.5 µg/mL | 0.5 µg/mL | 0.5 µg/mL | 0.5 µg/mL | 0.5 µg/mL | 0.25 µg/mL | 0.5 µg/mL | 0.5 µg/mL | 0.5 µg/mL | 0.5 µg/mL | 0.5 µg/mL | 0.5 µg/mL | 0.5 µg/mL | MBC (Chlamydia trachomatis [2]): 0.5 µg/mL; MBC (Chlamydia trachomatis [9]): 0.5 µg/mL; MBC (Chlamydia trachomatis [15]): 0.5 µg/mL; MBC (Chlamydia trachomatis [20]): 0.5 µg/mL
